Literature values, collected in PubChem BioAssay AID1259409 (Chemical Carcinogenesis Research Information System (CCRIS), 2018).

System: rodent chemically induced tumor inhibition, incidence and multiplicity
Assay: CCRIS tumor inhibitor studies

Which results are given for O=c1c(O)c(-c2ccc(O)c(O)c2)oc2cc(O)cc(O)c12?
tumour outcome (control, treated, inhibition, significance) (Carcinogen: BENZO[A]PYRENE, 50-32-8, Dose [Inhibitor]: 25 MG IN 0.1 ML DMSO 3/WK, ADMINISTERED SIMULTANEOUSLY WITH CARCINOGEN FOR DURATION OF STUDY (STUDY DURATION: 368 D), Route [Inhibitor]: DERMAL, Species: MOUSE, Strain/Sex: ICR/FEMALE, Target Tissue: Type of Lesion: SKIN: PAPILLOMA, Dose [Carcinogen]: 5 UG IN 0.1 ML DMSO THAT ALSO CONTAINED AGENT 3/WK FOR DURATION OF STUDY, Promoter: NONE USED): 13/50 (26%), 0/50 (0%), 100%, not calculated; tumour outcome (control, treated, inhibition, significance) (Carcinogen: BENZO[A]PYRENE, 50-32-8, Dose [Inhibitor]: 100 UG IN 0.2 ML ACETONE ONCE 5 MINUTES BEFORE CARCINOGEN TREATMENT (STUDY DURATION: 31 WK), Route [Inhibitor]: DERMAL, Species: MOUSE, Strain/Sex: CD-1/FEMALE, Target Tissue: Type of Lesion: SKIN: PAPILLOMA, Dose [Carcinogen]: 400 NMOL IN 0.2 ML ACETONE ONCE, Promoter: 12-O-TETRADECANOYLPHORBOL-13-ACETATE, 16561-29-8): 90%, 82%, 9%, not calculated; tumour outcome (control, treated, inhibition, significance) (Carcinogen: DIETHYLNITROSAMINE, 55-18-5, N-METHYLNITROSOUREA, 684-93-5, 1,2-DIMETHYLHYDRAZINE, 540-73-8, N-BUTYL-N-(4-HYDROXYB, Carcinogen: DIETHYLNITROSAMINE, 55-18-5, N-METHYLNITROSOUREA, 684-93-5, 1,2-DIMETHYLHYDRAZINE, 540-73-8, N-BUTYL-N-(4-HYDROXYB, Dose [Inhibitor]: 0, 1% IN DIET FOR 4 WK BEGINNING 1 DAY PRIOR TO CARCINOGEN TREATMENT (STUDY DURATION: 36 WK), Route [Inhibitor]: ORAL, Species: RAT, Strain/Sex: F344/MALE, Target Tissue: Type of Lesion: KIDNEY: ADENOMA, Dose [Carcinogen]: 100 MG/KG DEN ONCE, 20 MG/KG MNU 4 TIMES, 40 MG/KG DMH 4 TIMES, 0.05% BBN IN DRINKING WATER FOR 2 WK, 0.1% DHPN IN D, Dose [Carcinogen]: 100 MG/KG DEN ONCE, 20 MG/KG MNU 4 TIMES, 40 MG/KG DMH 4 TIMES, 0.05% BBN IN DRINKING WATER FOR 2 WK, 0.1% DHPN IN D, Promoter: NONE USED): 4/14 (29%), 4/13 (31%), -7%, not significant; tumour outcome (control, treated, inhibition, significance) (Carcinogen: DIETHYLNITROSAMINE, 55-18-5, N-METHYLNITROSOUREA, 684-93-5, 1,2-DIMETHYLHYDRAZINE, 540-73-8, N-BUTYL-N-(4-HYDROXYB, Carcinogen: DIETHYLNITROSAMINE, 55-18-5, N-METHYLNITROSOUREA, 684-93-5, 1,2-DIMETHYLHYDRAZINE, 540-73-8, N-BUTYL-N-(4-HYDROXYB, Dose [Inhibitor]: 0, 1% IN DIET FOR 4 WK BEGINNING 1 DAY PRIOR TO CARCINOGEN TREATMENT (STUDY DURATION: 36 WK), Route [Inhibitor]: ORAL, Species: RAT, Strain/Sex: F344/MALE, Target Tissue: Type of Lesion: KIDNEY: NEPHROBLASTOMA, Dose [Carcinogen]: 100 MG/KG DEN ONCE, 20 MG/KG MNU 4 TIMES, 40 MG/KG DMH 4 TIMES, 0.05% BBN IN DRINKING WATER FOR 2 WK, 0.1% DHPN IN D, Dose [Carcinogen]: 100 MG/KG DEN ONCE, 20 MG/KG MNU 4 TIMES, 40 MG/KG DMH 4 TIMES, 0.05% BBN IN DRINKING WATER FOR 2 WK, 0.1% DHPN IN D, Promoter: NONE USED): 7/14 (50%), 6/13 (46%), 8%, not significant; tumour outcome (control, treated, inhibition, significance) (Carcinogen: DIETHYLNITROSAMINE, 55-18-5, N-METHYLNITROSOUREA, 684-93-5, 1,2-DIMETHYLHYDRAZINE, 540-73-8, N-BUTYL-N-(4-HYDROXYB, Carcinogen: DIETHYLNITROSAMINE, 55-18-5, N-METHYLNITROSOUREA, 684-93-5, 1,2-DIMETHYLHYDRAZINE, 540-73-8, N-BUTYL-N-(4-HYDROXYB, Dose [Inhibitor]: 0, 1% IN DIET FOR 4 WK BEGINNING 1 DAY PRIOR TO CARCINOGEN TREATMENT (STUDY DURATION: 36 WK), Route [Inhibitor]: ORAL, Species: RAT, Strain/Sex: F344/MALE, Target Tissue: Type of Lesion: LARGE INTESTINE: ADENOMA, Dose [Carcinogen]: 100 MG/KG DEN ONCE, 20 MG/KG MNU 4 TIMES, 40 MG/KG DMH 4 TIMES, 0.05% BBN IN DRINKING WATER FOR 2 WK, 0.1% DHPN IN D, Dose [Carcinogen]: 100 MG/KG DEN ONCE, 20 MG/KG MNU 4 TIMES, 40 MG/KG DMH 4 TIMES, 0.05% BBN IN DRINKING WATER FOR 2 WK, 0.1% DHPN IN D, Promoter: NONE USED): 7/14 (50%), 5/13 (38%), 24%, not significant; tumour outcome (control, treated, inhibition, significance) (Carcinogen: DIETHYLNITROSAMINE, 55-18-5, N-METHYLNITROSOUREA, 684-93-5, 1,2-DIMETHYLHYDRAZINE, 540-73-8, N-BUTYL-N-(4-HYDROXYB, Carcinogen: DIETHYLNITROSAMINE, 55-18-5, N-METHYLNITROSOUREA, 684-93-5, 1,2-DIMETHYLHYDRAZINE, 540-73-8, N-BUTYL-N-(4-HYDROXYB, Dose [Inhibitor]: 0, 1% IN DIET FOR 4 WK BEGINNING 1 DAY PRIOR TO CARCINOGEN TREATMENT (STUDY DURATION: 36 WK), Route [Inhibitor]: ORAL, Species: RAT, Strain/Sex: F344/MALE, Target Tissue: Type of Lesion: LARGE INTESTINE: CARCINOMA, Dose [Carcinogen]: 100 MG/KG DEN ONCE, 20 MG/KG MNU 4 TIMES, 40 MG/KG DMH 4 TIMES, 0.05% BBN IN DRINKING WATER FOR 2 WK, 0.1% DHPN IN D, Dose [Carcinogen]: 100 MG/KG DEN ONCE, 20 MG/KG MNU 4 TIMES, 40 MG/KG DMH 4 TIMES, 0.05% BBN IN DRINKING WATER FOR 2 WK, 0.1% DHPN IN D, Promoter: NONE USED): 3/14 (21%), 5/13 (38%), -81%, not significant
